Measured values from article PMC11964921 (npj Drug Discovery, 2025).
≈ marks a conversion by molar mass, not a printed value. Where two headings read alike, the source gives them in different places.

Key:
[1] = test system: membranes from M. smegmatis cytochrome bd knockout strain (ΔcydAB); type: biochemical; settings: read-out: IC50 oxygen consumption
[2] = test system: M. tuberculosis Erdman; assay: MIC determination, agar dilution method; type: cell-based
[3] = test system: M. tuberculosis H37Rv Pasteur; assay: MIC determination, agar dilution method; type: cell-based
[4] = test system: membranes from M. smegmatis wild-type strain MC2155; type: biochemical; settings: read-out: IC50 oxygen consumption
[5] = test system: membranes from M. smegmatis cytochrome bc knockout strain (ΔqcrCAB); type: biochemical
[6] = test system: M. tuberculosis H37Rv-ΔcydAB; assay: microbe, parasite or virus in culture; type: cell-based; settings: Mycobacterium tuberculosis; for MIC50: 120 h
[7] = test system: isolated membranes from M. smegmatis; settings: cited from earlier work
[8] = test system: isolated membranes from M. tuberculosis; settings: cited from earlier work
[9] = test system: whole cell M. smegmatis; settings: cited from earlier work
[10] = test system: cytochrome bd knockout strain of M. smegmatis; settings: cited from earlier work
[11] = test system: M. tuberculosis H37Rv-ΔcydAB; design: species or system mouse (Balb/cBy); settings: mouse, in vivo, 25 mg/kg

Molecule `CCc1nc2ccc(Cl)cn2c1C(=O)NCc1ccc(C2CC3(C2)CN(S(=O)(=O)C(F)(F)F)C3)cc1` [JNJ-2901] has an IC50 [1] of 60 ± 26 nM, an MIC ([2]; Mycobacterium tuberculosis, Erdman reference strain, read-out: MIC) of over 0.016 µM and an MIC ([2]; Mycobacterium tuberculosis, strain Erdman, read-out: MIC) of over 8 ng/mL. The MIC ([2]; strain Erdman) was over 8 ng/mL, the MIC ([3]; Mycobacterium tuberculosis, H37Rv reference strain, read-out: MIC) was over 0.016 µM and the MIC ([3]; Mycobacterium tuberculosis, strain H37Rv Pasteur, <1% of inoculum able to grow, read-out: MIC) was over 8 ng/mL. For the same molecule, the MIC ([3]; strain H37Rv Pasteur, <1% of inoculum able to grow) was over 8 ng/mL, the IC50 [4] was 89 ± 54 nM and the “reduction of activity (oxygen consumption)” value [5] was 20%. The MIC50 [6] was 2.5 ± 0.1 nM (≈ 1.35 ng/mL).

For `CCc1nc2ccc(Cl)cn2c1C(=O)NCc1ccc(N2CCC(c3ccc(OC(F)(F)F)cc3)CC2)cc1` [Q203], the IC50 [7] is listed as about 20 nM, the IC50 [8] is listed as about 20 nM and the MIC [9] is listed as over 50 µM. The MIC [10] was ~ 2.5 μM, the MIC [6] was about 2 nM (≈ 1.11 ng/mL) and the MIC50 [6] was 2 ± 0.1 nM (≈ 1.11 ng/mL).

For `COc1nc2ccc(Br)cc2cc1[C@@H](c1ccccc1)[C@@](O)(CCN(C)C)c1cccc2ccccc12` [bedaquiline, reference compound], the “reduction in bacterial load (lungs)” value [11] was 4.6 log.
